Experimental data reported in PubChem BioAssay (NCI).
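Interpolation was linear, between the two tested concentrations surrounding the appropriate level; five concentrations were tested over 48 hours in 96-well plates. Definition used: TGI = concentration required for complete inhibition of growth.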

Legend:
Test in all cases: NCI tumour cell line growth inhibition, 48 h
[1] = tested on: MDA-N
[2] = tested on: U251 CNS
[3] = tested on: MOLT-4 leukemia
[4] = tested on: UACC-62 melanoma
[5] = tested on: LOX IMVI melanoma
[6] = tested on: HS 578T breast
[7] = tested on: MCF7 breast
[8] = tested on: SF-268 CNS
[9] = tested on: BT-549 breast
[10] = tested on: IGROV1 ovarian
[11] = tested on: NCI-H522 lung
[12] = tested on: OVCAR-4 ovarian
[13] = tested on: 786-0 renal
[14] = tested on: SN12C renal
[15] = tested on: SK-MEL-28 melanoma
[16] = tested on: SK-MEL-2 melanoma
[17] = tested on: RPMI-8226 leukemia
[18] = tested on: SNB-19 CNS
[19] = tested on: HT29 colon
[20] = tested on: TK-10 renal
[21] = tested on: CCRF-CEM leukemia
[22] = tested on: SF-539 CNS
[23] = tested on: UO-31 renal
[24] = tested on: KM12 colon
[25] = tested on: NCI-H460 lung
[26] = tested on: UACC-257 melanoma
[27] = tested on: RXF 393 renal
[28] = tested on: HCT-116 colon
[29] = tested on: NCI/ADR-RES ovarian
[30] = tested on: ACHN renal
[31] = tested on: SK-OV-3 ovarian
[32] = tested on: OVCAR-8 ovarian
[33] = tested on: SF-295 CNS
[34] = tested on: SW-620 colon
[35] = tested on: T-47D breast
[36] = tested on: SR leukemia
[37] = tested on: MDA-MB-435
[38] = tested on: A549 NSCLC
[39] = tested on: SK-MEL-5 melanoma
[40] = tested on: HCT-15 colon
[41] = tested on: EKVX NSCLC
[42] = tested on: MDA-MB-231 breast
[43] = tested on: PC-3 prostate
[44] = tested on: DU-145 prostate
[45] = tested on: HOP-92 NSCLC
[46] = tested on: HL-60(TB) leukemia
[47] = tested on: HCC-2998 colon
[48] = tested on: NCI-H23 lung
[49] = tested on: NCI-H226 lung
[50] = tested on: CAKI-1 renal
[51] = tested on: MALME-3M melanoma
[52] = tested on: COLO 205 colon
[53] = tested on: OVCAR-5 ovarian
[54] = tested on: A498 renal
[55] = tested on: M14 melanoma
[56] = tested on: K-562 leukemia
[57] = tested on: HOP-62 NSCLC
[58] = tested on: OVCAR-3 ovarian
[59] = tested on: SNB-75 CNS

Work on `CC(C)=CCN=C(N)N` yielded a TGI [1] of over 100 µM, a TGI [2] of over 100 µM and a TGI [3] of over 100 µM. For the same compound, the TGI [4] was over 100 µM, the TGI [5] was over 100 µM and the TGI [6] was over 100 µM. It also gave a TGI [7] of over 100 µM, a TGI [8] of over 100 µM and a TGI [9] of over 100 µM. The TGI [10] was over 100 µM, the TGI [11] was over 100 µM and the TGI [12] was over 100 µM. It also gave a TGI [13] of over 100 µM, a TGI [14] of over 100 µM and a TGI [15] of over 100 µM. It also gave a TGI [16] of over 100 µM, a TGI [17] of 99.7 µM and a TGI [18] of over 100 µM. For the same compound, the TGI [19] was over 100 µM, the TGI [20] was over 100 µM and the TGI [21] was over 100 µM. The TGI [22] was over 100 µM, the TGI [23] was over 100 µM and the TGI [24] was over 100 µM. The TGI [25] was over 100 µM, the TGI [26] was over 100 µM and the TGI [27] was over 100 µM. The TGI [28] was over 100 µM, the TGI [29] was over 100 µM and the TGI [30] was over 100 µM. It also gave a TGI [31] of over 100 µM, a TGI [32] of over 100 µM and a TGI [33] of over 100 µM. The TGI [34] was over 100 µM, the TGI [35] was over 100 µM and the TGI [36] was 83.6 µM. For the same compound, the TGI [37] was over 100 µM, the TGI [38] was over 100 µM and the TGI [39] was over 100 µM. It also gave a TGI [40] of over 100 µM, a TGI [41] of over 100 µM and a TGI [42] of over 100 µM. For the same compound, the TGI [43] was over 100 µM, the TGI [44] was over 100 µM and the TGI [45] was over 100 µM. It also gave a TGI [46] of over 100 µM, a TGI [47] of over 100 µM and a TGI [48] of over 100 µM. For the same compound, the TGI [49] was over 100 µM, the TGI [50] was over 100 µM and the TGI [51] was over 100 µM. For the same compound, the TGI [52] was over 100 µM.
`Clc1ccc(-c2ccc(-c3nnc(CCc4nnc(-c5ccc(-c6ccc(Cl)cc6)o5)o4)o3)o2)cc1` gave a TGI [1] of over 100 µM, a TGI [2] of over 100 µM and a TGI [53] of over 100 µM. The TGI [3] was over 45.3 µM, the TGI [4] was over 100 µM and the TGI [5] was over 100 µM. The TGI [6] was 86 µM, the TGI [7] was over 100 µM and the TGI [54] was over 92.2 µM. It also gave a TGI [8] of over 100 µM, a TGI [9] of over 100 µM and a TGI [10] of over 100 µM. For the same compound, the TGI [11] was over 100 µM, the TGI [12] was over 100 µM and the TGI [13] was over 100 µM. The TGI [14] was over 100 µM, the TGI [15] was over 100 µM and the TGI [16] was over 100 µM. The TGI [55] was over 100 µM, the TGI [56] was over 61.2 µM and the TGI [17] was over 100 µM. For the same compound, the TGI [18] was over 100 µM, the TGI [19] was over 100 µM and the TGI [20] was over 86 µM. For the same compound, the TGI [21] was 16.9 µM, the TGI [22] was over 100 µM and the TGI [23] was over 100 µM. It also gave a TGI [24] of over 100 µM, a TGI [25] of over 100 µM and a TGI [26] of over 100 µM. The TGI [27] was over 56 µM, the TGI [28] was over 100 µM and the TGI [29] was over 100 µM. The TGI [30] was over 100 µM, the TGI [31] was over 90.4 µM and the TGI [32] was over 100 µM. For the same compound, the TGI [33] was over 100 µM, the TGI [57] was over 100 µM and the TGI [34] was over 100 µM. The TGI [35] was over 100 µM, the TGI [36] was 5.5 µM and the TGI [37] was over 100 µM. The TGI [38] was over 100 µM, the TGI [39] was over 100 µM and the TGI [40] was over 100 µM. It also gave a TGI [41] of over 100 µM, a TGI [42] of over 100 µM and a TGI [43] of over 100 µM. It also gave a TGI [58] of over 100 µM, a TGI [44] of over 100 µM and a TGI [45] of over 64.1 µM. For the same compound, the TGI [47] was over 100 µM, the TGI [48] was over 100 µM and the TGI [49] was over 100 µM. For the same compound, the TGI [50] was over 100 µM and the TGI [52] was over 100 µM.
In the case of `CC(=O)NC1C(OCc2ccccc2)OC(CO)C(O)C1OCC(=O)NC(C)C(=O)NC(CCC(=O)NCCCCNc1ccc([N+](=O)[O-])c2[nH]c3ccccc3c(=O)c12)C(N)=O` (stereo unspecified), the TGI [1] is reported as over 100 µM, the TGI [2] is reported as over 100 µM and the TGI [53] is reported as over 100 µM. The TGI [5] was over 100 µM, the TGI [6] was 75.2 µM and the TGI [7] was over 100 µM. For the same compound, the TGI [54] was over 100 µM, the TGI [8] was over 100 µM and the TGI [9] was over 100 µM. The TGI [10] was over 100 µM, the TGI [12] was over 100 µM and the TGI [13] was over 100 µM. It also gave a TGI [14] of over 100 µM, a TGI [15] of over 100 µM and a TGI [16] of over 100 µM. For the same compound, the TGI [55] was over 100 µM, the TGI [56] was over 100 µM and the TGI [59] was over 100 µM. It also gave a TGI [18] of over 100 µM, a TGI [19] of over 100 µM and a TGI [20] of over 100 µM. For the same compound, the TGI [22] was over 100 µM, the TGI [23] was over 100 µM and the TGI [24] was over 100 µM. The TGI [25] was over 100 µM, the TGI [28] was over 100 µM and the TGI [29] was over 100 µM. It also gave a TGI [30] of over 100 µM, a TGI [31] of over 100 µM and a TGI [32] of over 100 µM. The TGI [33] was over 100 µM, the TGI [57] was over 100 µM and the TGI [34] was over 100 µM. It also gave a TGI [35] of over 100 µM, a TGI [36] of over 100 µM and a TGI [37] of over 100 µM. The TGI [38] was over 100 µM, the TGI [40] was over 100 µM and the TGI [41] was over 100 µM. It also gave a TGI [42] of over 100 µM, a TGI [43] of over 100 µM and a TGI [58] of over 100 µM. It also gave a TGI [44] of over 100 µM, a TGI [45] of over 100 µM and a TGI [46] of over 100 µM. The TGI [47] was over 100 µM, the TGI [48] was over 100 µM and the TGI [49] was over 100 µM. For the same compound, the TGI [50] was over 100 µM, the TGI [51] was over 100 µM and the TGI [52] was over 100 µM.
`O=c1cc(CNC2CCCC2)[nH]c(=O)[nH]1` was tested, and the TGI [1] was over 100 µM, the TGI [2] was over 100 µM and the TGI [53] was over 100 µM. For the same compound, the TGI [3] was over 100 µM, the TGI [4] was over 100 µM and the TGI [5] was over 100 µM. For the same compound, the TGI [6] was over 100 µM, the TGI [7] was over 100 µM and the TGI [54] was over 100 µM. The TGI [8] was over 100 µM, the TGI [9] was over 100 µM and the TGI [10] was over 100 µM. The TGI [11] was over 100 µM, the TGI [12] was over 100 µM and the TGI [13] was over 100 µM. It also gave a TGI [14] of over 100 µM, a TGI [15] of over 100 µM and a TGI [16] of over 100 µM. It also gave a TGI [55] of over 100 µM, a TGI [56] of over 100 µM and a TGI [59] of over 100 µM. For the same compound, the TGI [17] was over 100 µM, the TGI [18] was over 100 µM and the TGI [19] was over 100 µM. The TGI [20] was over 100 µM, the TGI [21] was over 100 µM and the TGI [22] was over 100 µM. For the same compound, the TGI [23] was over 100 µM, the TGI [24] was over 100 µM and the TGI [25] was over 100 µM. For the same compound, the TGI [26] was over 100 µM, the TGI [27] was over 100 µM and the TGI [28] was over 100 µM. It also gave a TGI [29] of over 100 µM, a TGI [30] of over 100 µM and a TGI [31] of over 100 µM. For the same compound, the TGI [32] was over 100 µM, the TGI [33] was over 100 µM and the TGI [57] was over 100 µM. The TGI [34] was over 100 µM, the TGI [35] was over 100 µM and the TGI [36] was over 100 µM. The TGI [37] was over 100 µM, the TGI [38] was over 100 µM and the TGI [39] was over 100 µM. The TGI [40] was over 100 µM, the TGI [41] was over 100 µM and the TGI [42] was over 100 µM. For the same compound, the TGI [43] was over 100 µM, the TGI [58] was over 100 µM and the TGI [44] was over 100 µM. The TGI [46] was over 100 µM, the TGI [47] was over 100 µM and the TGI [48] was over 100 µM. For the same compound, the TGI [50] was over 100 µM, the TGI [51] was over 100 µM and the TGI [52] was over 100 µM.
